# Measured values as given in patent US10899758B2, “Inhibitors of the menin-MLL interaction” (Vitae Pharmaceuticals, LLC, priority 2016, dated 2021).
# Where two headings read alike, the source gives them in different places.
# Legend:
# [1] = target: T1, menin/MLL binding (biotinylated wild-type or mutated menin and MLL-AF9 fusion protein) (Homo sapiens, UniProt O00255); assay: Assay 1 (Binding Assay): AlphaLISA menin/MLL binding; conditions: 5 nM biotinylated menin, MLL-AF9-FLAG lysate
# T1 construct: biotinylated (1) wild-type menin or (2) mutated menin (described in Nature (2012) Vol. 482, pp. 542-548); fused on or other part: Biotin attached chemically (Sulfo-NHS-Biotin); no fused second protein is printed for menin
# T1 sequence (O00255 1-459 limits assumed): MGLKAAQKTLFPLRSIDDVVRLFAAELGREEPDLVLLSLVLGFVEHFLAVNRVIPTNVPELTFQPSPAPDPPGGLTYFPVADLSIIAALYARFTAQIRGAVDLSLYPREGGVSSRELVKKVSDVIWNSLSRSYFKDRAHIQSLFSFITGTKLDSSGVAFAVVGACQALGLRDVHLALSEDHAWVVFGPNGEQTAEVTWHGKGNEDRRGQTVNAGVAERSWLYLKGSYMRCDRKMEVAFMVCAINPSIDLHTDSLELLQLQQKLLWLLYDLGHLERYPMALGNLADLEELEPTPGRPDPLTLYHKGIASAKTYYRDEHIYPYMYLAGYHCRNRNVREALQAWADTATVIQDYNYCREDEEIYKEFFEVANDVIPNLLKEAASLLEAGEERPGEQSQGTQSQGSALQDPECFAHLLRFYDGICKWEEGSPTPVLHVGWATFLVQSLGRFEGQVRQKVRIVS
# Outline: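 Biotinylated E. coli-expressed menin (wild-type or mutant), 5 nM, incubated 30 min RT with compound and HEK293 lysate of MLL1-1,396–AF9-FLAG in pH 7.4 Tris buffer, 5% DMSO, 1 mM DTT. Anti-FLAG acceptor and streptavidin donor beads added, 60 min RT, AlphaLISA signal read. IC50 from four-parameter fit of % inhibition.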
# [2] = tested on: human acute monocytic leukemia cell line MV-4-11; assay: Assay 2 (Cell Proliferation Assay), ATP quantitation (CellTiter-Glo); type: cell-based; conditions: MV-4-11 cells, read-out: Assay 2 (EC50, inhibition of cell proliferation)
# Method: Potencies of inhibitor compounds against cell proliferation was assessed against the human acute monocytic leukemia cell line MV-4-11 (ATCC® CRL-9591™) based on ATP quantitation. MV-4-11 cells or toxicity control HL-60 cells (ATCC® CCL-240™) were incubated in 96-well tissue culture plates (1.67×10^4 cells in 200 μL culture media containing 10% FBS per well) with or without test compound for 72 h at 37° C., 5% CO2. After incubation, each well was mixed by pipetting and 95 μL from each well was transferred to a well in 96-well black OptiPlate® plates (PerkinElmer). An equal volume of CellTiter-Glo® Luminescent Cell Viability Assay reagent (Promega) was added to each well, followed by mixing for 5 min on an orbital plate shaker. Luminescence was measured on a Wallac EnVision 2104 Multilabel Reader (PerkinElmer) to quantitate ATP. Percent inhibition of cell proliferation by test compounds was calculated based on uninhibited cell growth (DMSO) versus cells treated with a potent menin inhibitor at a concentration yielding at least 100×LD50.
Compound,IC50 [1],"EC50 ([2]; Homo sapiens, MV4-11, 72 h)",EC50 ([2]; 72 h)
"CC(C)N(C)C(=O)c1cc(F)ccc1-n1cc(C2CCN(CCC3CCOCC3)CC2)c2ccncc21 [Example 6, 5-fluoro-N-isopropyl-N-methyl-2-(3-(1-(2-(tetrahydro-2H-pyran-4-yl)ethyl)piperidin-4-yl)-1H-pyrrolo[2,3-c]pyridin-1-yl)benzamide]",< 0.1 µM,0.1 to 1 µM,–
"CC(C)N(C)C(=O)c1cc(F)ccc1-n1cc(C2CCN(Cc3ccc4[nH]c(=O)[nH]c4c3)CC2)c2ccncc21 [Example 5, 5-fluoro-N-isopropyl-N-methyl-2-(3-(1-((2-oxo-2,3-dihydro-1H-benzo[d]imidazol-5-yl)methyl)piperidin-4-yl)-1H-pyrrolo[2,3-c]pyridin-1-yl)benzamide]",< 0.1 µM,0.1 to 1 µM,–
"CCN(C(=O)c1cc(F)ccc1-n1cc(C2CCCN(Cc3ccc4[nH]c(=O)[nH]c4c3)C2)c2ccncc21)C(C)C (single isomer, unassigned) [Example 47A]",< 0.1 µM,< 0.1 µM,–
"CC(C)N(C)C(=O)c1cc(F)ccc1-n1cc(C2CCCN(Cc3ccc4c(c3)[nH]c(=O)n4CCO)C2)c2ccncc21 (centres unmarked) [Example 44, 5-fluoro-2-(3-(1-((1-(2-hydroxyethyl)-2-oxo-2,3-dihydro-1H-benzo[d]imidazol-5-yl)methyl)piperidin-3-yl)-1H-pyrrolo[2,3-c]pyridin-1-yl)-N-isopropyl-N-methylbenzamide]",< 0.1 µM,–,< 0.1 µM
"CC(C)N(C)C(=O)c1cc(F)ccc1-n1cc(C2CCCN(CC3CCCCC3)C2)c2ccncc21 (centres unmarked) [Example 46, 2-(3-(1-(cyclohexylmethyl)piperidin-3-yl)-1H-pyrrolo[2,3-c]pyridin-1-yl)-5-fluoro-N-isopropyl-N-methylbenzamide]",< 0.1 µM,0.1 to 1 µM,–
"CC(C)N(C(=O)c1cc(F)ccc1-n1cc(C2CN(CC[C@H]3CC[C@H](NS(C)(=O)=O)CC3)C2)c2ccncc21)C(C)C [Example 137, 5-fluoro-N,N-diisopropyl-2-(3-(1-(2-((1r,4r)-4-(methylsulfonamido)cyclohexyl)ethyl)azetidin-3-yl)-1H-pyrrolo[2,3-c]pyridin-1-yl)benzamide]",< 0.1 µM,< 0.1 µM,–
"CC(C)N(C)C(=O)c1cc(F)ccc1-n1cc([C@H]2CC[C@H](N3CCC(F)(F)CC3)CC2)c2ccncc21 [Example 110, 2-(3-(trans-4-(4,4-difluoropiperidin-1-yl)cyclohexyl)-1H-pyrrolo[2,3-c]pyridin-1-yl)-5-fluoro-N-isopropyl-N-methylbenzamide]",< 0.1 µM,0.1 to 1 µM,–
"CC(C)N(C)C(=O)c1cc(F)ccc1-n1cc(C2CCN(C[C@H]3CC[C@H](NS(C)(=O)=O)CC3)CC2)c2ccncc21 [Example 21, 5-fluoro-N-isopropyl-N-methyl-2-(3-(1-((trans-4-(methylsulfonamido)cyclohexyl)methyl)piperidin-4-yl)-1H-pyrrolo[2,3-c]pyridin-1-yl)benzamide]",< 0.1 µM,0.1 to 1 µM,–
"Cc1c(CN2CCC(n3c(=O)n(-c4ccc(F)cc4)c4cnccc43)CC2)ccc2[nH]c(C#N)cc12 [Example 80, 5-((4-(3-(4-fluorophenyl)-2-oxo-2,3-dihydro-1H-imidazo[4,5-c]pyridin-1-yl)piperidin-1-yl)methyl)-4-methyl-1H-indole-2-carbonitrile]",< 0.1 µM,≥ 1 µM,–
"CS(=O)(=O)N[C@H]1CC[C@H](CCN2CCC(c3cn(-c4ccc(F)cc4OCC4CC4)c4cnccc34)CC2)CC1 [Example 34, N-(trans-4-(2-(4-(1-(2-(cyclopropylmethoxy)-4-fluorophenyl)-1H-pyrrolo[2,3-c]pyridin-3-yl)piperidin-1-yl)ethyl)cyclohexyl)methanesulfonamide]",< 0.1 µM,0.1 to 1 µM,–
"Cc1nnc(C2CC2)n1-c1cc(F)ccc1-n1cc(C2CCCN(Cc3ccc4[nH]c(=O)[nH]c4c3)C2)c2ccncc21 (centres unmarked) [Example 121, 5-((3-(1-(2-(3-cyclopropyl-5-methyl-4H-1,2,4-triazol-4-yl)-4-fluorophenyl)-1H-pyrrolo[2,3-c]pyridin-3-yl)piperidin-1-yl)methyl)-1H-benzo[d]imidazol-2(3H)-one]",< 0.1 µM,< 0.1 µM,–
"CC(C)N(C)C(=O)c1cc(F)ccc1-n1cc([C@H]2CC[C@H](N3CCCC(O)C3)CC2)c2ccncc21 (stereo partly drawn) [Example 112, 5-fluoro-2-(3-(trans-4-(3-hydroxypiperidin-1-yl)cyclohexyl)-1H-pyrrolo[2,3-c]pyridin-1-yl)-N-isopropyl-N-methylbenzamide]",< 0.1 µM,≥ 1 µM,–

# Second part, the molecule after the results:
IC50 [1],"EC50 ([2]; Homo sapiens, MV4-11, 72 h)",EC50 ([2]; 72 h),Compound
< 0.1 µM,< 0.1 µM,–,"CC(C)N(C)C(=O)c1cc(F)ccc1-n1cc(C2CCCN(Cc3ccc4[nH]c(=O)[nH]c4c3)C2)c2ccncc21 (single isomer, unassigned) [Example 43A, 5-fluoro-N-isopropyl-N-methyl-2-(3-(1-((2-oxo-2,3-dihydro-1H-benzo[d]imidazol-5-yl)methyl)piperidin-3-yl)-1H-pyrrolo[2,3-c]pyridin-1-yl)benzamide]"
< 0.1 µM,< 0.1 µM,–,"Cc1c(CN2CCC(c3cn(-c4ccc(F)cc4C(=O)N(C)C(C)C)c4cnccc34)CC2)ccc2[nH]c(C#N)cc12 [Example 2, 2-(3-(1-((2-cyano-4-methyl-1H-indol-5-yl)methyl)piperidin-4-yl)-1H-pyrrolo[2,3-c]pyridin-1-yl)-5-fluoro-N-isopropyl-N-methylbenzamide]"
< 0.1 µM,0.1 to 1 µM,–,"CC(C)N(C)C(=O)c1cc(F)ccc1-n1cc(C2CCN(CC3CC(F)(F)C3)CC2)c2ccncc21 [Example 16, 2-(3-(1-((3,3-difluorocyclobutyl)methyl)piperidin-4-yl)-1H-pyrrolo[2,3-c]pyridin-1-l)-5-fluoro-N-isopropyl-N-methylbenzamide]"
< 0.1 µM,< 0.1 µM,–,"CC(C)N(C)C(=O)c1cc(F)ccc1-n1cc(C2CCCN(Cc3ccc4c(c3)[nH]c(=O)n4CCO)C2)c2ccncc21 (single isomer, unassigned) [Example 44B, 5-fluoro-2-(3-(1-((1-(2-hydroxyethyl)-2-oxo-2,3-dihydro-1H-benzo[d]imidazol-5-yl)methyl)piperidin-3-yl)-1H-pyrrolo[2,3-c]pyridin-1-yl)-N-isopropyl-N-methylbenzamide]"
< 0.1 µM,0.1 to 1 µM,–,"CC(C)N(C)C(=O)c1cc(F)ccc1-n1cc(C2CCN(C[C@H]3CC[C@H](NS(C)(=O)=O)CC3)C2)c2ccncc21 (stereo partly drawn) [Example 124, N-methyl-5-fluoro-N-isopropyl-2-(3-(1-((trans-4-(methylsulfonamido)cyclohexyl)methyl)pyrrolidin-3-yl)-1H-pyrrolo[2,3-c]pyridin-1-yl)benzamide]"
< 0.1 µM,≥ 1 µM,–,"CC(C)N(C)C(=O)c1cc(F)ccc1-c1cn(C2CCCN(Cc3ccc4[nH]c(=O)[nH]c4c3)C2)c2ccncc12 (centres unmarked) [Example 74, 5-fluoro-N-isopropyl-N-methyl-2-(1-(1-((2-oxo-2,3-dihydro-1H-benzo[d]imidazol-5-yl)methyl)piperidin-3-yl)-1H-pyrrolo[3,2-c]pyridin-3-yl)benzamide]"
< 0.1 µM,0.1 to 1 µM,–,"CC(C)N(C)C(=O)c1cc(F)ccc1-n1cc(C2CCN(CC[C@H]3CC[C@H](NC(=O)OC(C)(C)C)CC3)CC2)c2ccncc21 [Example 18A, tert-butyl (trans-4-(2-(4-(1-(4-fluoro-2-(isopropyl(methyl)carbamoyl)phenyl)-1H-pyrrolo[2,3-c]pyridin-3-yl)piperidin-1-yl)ethyl)cyclohexyl)carbamate]"
